Source: patent publication US20180051017A1, “AGENT FOR TREATMENT OF SCHIZOPHRENIA” (Sumitomo Dainippon Pharma Co., Ltd., priority 2002, published 2018)
Where a name gives a salt, the structure may show the parent alone.

Test system: patients with schizophrenia in the acute exacerbation phase
Experiment: First stage phase II clinical trial, placebo-controlled double-blind: efficacy (BPRS, PANSS, CGI-S/I)
Assay type: in vivo, human
Protocol: According to the procedures as shown in Table 1 as described below, the placebo-controlled double blind experiment was done on 149 patients with schizophrenia in the acute exacerbation phase at 15 facilities in USA. The efficacy and safeness were studied when SM-13496 at a dose of 40 mg or 120 mg, or a placebo was orally administered once a day for 6 weeks after placebo washout.

O=C1[C@@H]2[C@@H]3CC[C@@H](C3)[C@@H]2C(=O)N1C[C@@H]1CCCC[C@H]1CN1CCN(c2nsc3ccccc23)CC1 [SM-13496, (1R,2S,3R,4S)-N-[(1R,2R)-2-[4-(1,2-benzoisothiazol-3-yl)-1-piperazinyl-methyl]-1-cyclohexylmethyl]-2,3-bicyclo[2.2.1]heptanedicarboximide hydrochloride]
Reductions in BPRS, CGI-I and CGI-S scores at end of trial compared to placebo (40 mg or 120 mg, 6 weeks after the administration): statistically significant
Responder (BPRS reduction 20% or more, or CGI-I 1 or 2), Number (40 mg orally once a day for 6 weeks, 47 subjects, p 0.002 vs placebo): 26
BPRS Total Score, change from before administration at end of trial (LOCF), Average (SD) (40 mg orally once a day for 6 weeks, 47 subjects, p 0.014 vs placebo): −10.0
PANSS Total Score, change from before administration at end of trial (LOCF), Average (SD) (40 mg orally once a day for 6 weeks, 47 subjects, p 0.063 vs placebo): −14.1
CGI-I at end of trial, Average (SD) (40 mg orally once a day for 6 weeks, n = 47, p 0.013 vs placebo): 3.2 (1.56)
Ratio of responders compared to placebo (40 mg- or 120 mg-treated group): statistically significant difference
BPRS Total Score, change from before administration at end of trial (LOCF), Average (SD) (120 mg orally once a day for 6 weeks, 44 subjects, p 0.003 vs placebo): −11.3 (8.89)
Responder (BPRS reduction 20% or more, or CGI-I 1 or 2), Number (120 mg orally once a day for 6 weeks, 44 subjects, p 0.007 vs placebo): 22
PANSS Total Score, change from before administration at end of trial (LOCF), Average (SD) (120 mg orally once a day for 6 weeks, 44 subjects, p 0.010 vs placebo): −17.4 (15.70)
CGI-I at end of trial, Average (SD) (120 mg orally once a day for 6 weeks, n = 42, p 0.005 vs placebo): 3.0 (1.29)
Reduction in PANSS score at end of experiment compared to placebo (120 mg, 6 weeks): statistically significant
BPRS total score (LOCF) change with time compared to placebo (FIG. 1) (SM-13496-treated groups, at 2 weeks or later, p<0.05): statistically significantly reduced
